Here are results for 2 compounds from ChEMBL document CHEMBL3797140, “Acridin-3,6-dialkyldithiourea hydrochlorides as new photosensitizers for photodynamic therapy of mouse leukemia cells” (Bioorg Med Chem, 2016).

The test system of one data set is L1210. The experiment in a line: Phototoxicity against mouse L1210 cells assessed as cell viability preincubated for 1 hr followed by 1.05 J/cm2 UV-A irradiation measured after 48 hrs by MTT assay. The class given is functional, cell-based. The note with it: L1210, light or radiation study.
A short description of data set [1]: Dark toxicity against mouse L1210 cells assessed as cell viability after 48 hrs by MTT assay. The class given is cell-based. A general note: Formazan colour is commonly taken as a measure of viable cells.
Data set [2] in a line: Dark toxicity against mouse NIH/3T3 cells assessed as cell viability after 48 hrs by MTT assay. The class given is cell-based, NIH3T3.
Data set [3] in a line: Phototoxicity against mouse NIH/3T3 cells assessed as cell viability preincubated for 1 hr followed by 1.05 J/cm2 UV-A irradiation measured after 48 hrs by MTT assay. The format is cell-based. The conditions noted are these: NIH3T3, light or radiation study.

For `CCCCCNC(=S)Nc1ccc2cc3ccc(NC(=S)NCCCCC)cc3nc2c1`, the IC50 (as a rule, the concentration that gives 50% inhibition) in the data set with L1210 turned out to be 0.6 µM; in data set [3], 3.7 µM. Further, the values for the IC50 at 48 h in data set [1] and in data set [2] were 9.2 µM and 37.5 µM, respectively.

For `CCCCNC(=S)Nc1ccc2cc3ccc(NC(=S)NCCCC)cc3nc2c1`, the values for the concentration for half-maximal inhibition (IC50) (in the data set with L1210; in data set [3]) were 0.52 µM and 2.6 µM, respectively. For the same compound, the IC50 at 48 h in data set [1] was determined as 6.6 µM; in data set [2], 32.7 µM.
